{
  "source": "patent US12534472B2",
  "about": "“Morphic forms of trilaciclib and methods of manufacture thereof” (Pharmacosmos Holding A/S, priority 2020, dated 2026)",
  "assay_type_in_all_cases": "physicochemical",
  "key": {"[1]": {"experiment": "Thermodynamic solubility in water at pH 4.2", "details": "for Observations at T = 24 hours: 30 mg/mL in water at pH 4.2, agitated at ambient temperature ca. 24 hours; for Observations at T = 0 hours: 30 mg/mL in water at pH 4.2, ambient temperature", "experimental": "Thermodynamic solubility was carried out for Pattern 1, Pattern 2/6 mixture, Pattern 3, amorphous di-HCl salts and Pattern 7 in water at pH 4.2. All samples were prepared at 30 mg/mL. Initial observations were made. The samples were agitated at ambient temperature for ca. 24 hours. The samples were collected and observations made. Observed solids were isolated via centrifugation. The mother liquor from the filtered sample was analyzed by HPLC. The pH 4.3 solution was prepared by diluting glacial acetic acid (11.6 mL) to 100 mL in deionized water, then adding sodium acetate (1.07 g) and acetic acid solution (5.9 mL) preparing up to 500 mL with deionized water; then the pH was adjusted to 4.2. The above technique was used to generate the images in FIG. 60."}, "[2]": {"experiment": "Solvent solubility screen (approximate solubility)", "experimental": "The solvent solubility experiment was carried out using various solvents to determine solid formation. A known volume aliquot (typically 5 volumes) of solvent was added to approximately 10 mg of amorphous Compound 1 as a dihydrochloride. Between each addition, the mixture was checked for dissolution and where no dissolution was apparent, the mixture was heated to ca. 40° C. and checked again. This procedure was continued until dissolution was observed or until 100 volumes of solvent had been added. All observed solids were isolated and analyzed by XRPD.\nExamples of solvents include, but are not limited to, 1,4 dioxane, methanol, ethanol, propanol, butanol, butanone, ethoxyethanol, trifluoroethanol, methyl-THF, acetone, acetonitrile, anisole, chlorobenzene, DMSO, DMF, cumene, dichloromethane, ethyl acetate, ethylene glycol, heptane, isopropyl acetate, nitromethane, n-methylpyrrolidone, MIBK, t-BME, tetrahydrofuran, toluene, water and mixtures thereof. The above technique was used to generate the images in FIG. 8, FIG. 9, FIG. 10, FIG. 11, FIG. 12, FIG. 14."}, "[3]": {"experiment": "Solubility of trilaciclib (general statement)"}},
  "data": [
    {"smiles": "CN1CCN(c2ccc(Nc3ncc4cc5n(c4n3)C3(CCCCC3)CNC5=O)nc2)CC1.Cl.Cl", "note": "[Amorphous Di-HCl]", "values": [
      {"measurement": "Observations at T = 24 hours", "setting": "[1]", "value": "Yellow solution"},
      {"measurement": "Observations at T = 0 hours", "setting": "[1]", "value": "Yellow solution (dissolved"},
      {"measurement": "Approx. Solubility", "setting": "[2]; 1,4-Dioxane, heated to ca. 40° C. where no dissolution", "value": "<5000", "unit": "µg/mL"},
      {"measurement": "Approx. Solubility", "setting": "[2]; 1-Butanol, heated to ca. 40° C. where no dissolution", "value": "<5000", "unit": "µg/mL"},
      {"measurement": "Approx. Solubility", "setting": "[2]; 2,2,2-Trifluoroethanol", "value": ">200000", "unit": "µg/mL"},
      {"measurement": "Approx. Solubility", "setting": "[2]; 2-Butanone, heated to ca. 40° C. where no dissolution", "value": "<5000", "unit": "µg/mL"},
      {"measurement": "Approx. Solubility", "setting": "[2]; 2-Ethoxyethanol, heated to ca. 40° C. where no dissolution", "value": "<5000", "unit": "µg/mL"},
      {"measurement": "Approx. Solubility", "setting": "[2]; 2-Methyl THF, heated to ca. 40° C. where no dissolution", "value": "<5000", "unit": "µg/mL"},
      {"measurement": "Approx. Solubility", "setting": "[2]; 2-Propanol, heated to ca. 40° C. where no dissolution", "value": "ca 5 mg/mL"},
      {"measurement": "Approx. Solubility", "setting": "[2]; Acetone, heated to ca. 40° C. where no dissolution", "value": "<5000", "unit": "µg/mL"},
      {"measurement": "Approx. Solubility", "setting": "[2]; Acetonitrile/water (90:10% v/v), heated to ca. 40° C. where no dissolution", "value": "<5000", "unit": "µg/mL"},
      {"measurement": "Approx. Solubility", "setting": "[2]; Acetonitrile, heated to ca. 40° C. where no dissolution", "value": "<5000", "unit": "µg/mL"},
      {"measurement": "Approx. Solubility", "setting": "[2]; Anisole, heated to ca. 40° C. where no dissolution", "value": "<5000", "unit": "µg/mL"},
      {"measurement": "Approx. Solubility", "setting": "[2]; Chlorobenzene, heated to ca. 40° C. where no dissolution", "value": "<5000", "unit": "µg/mL"},
      {"measurement": "Approx. Solubility", "setting": "[2]; Cumene, heated to ca. 40° C. where no dissolution", "value": "ca 5 mg/mL"},
      {"measurement": "Approx. Solubility", "setting": "[2]; DMF, heated to ca. 40° C. where no dissolution", "value": "<5000", "unit": "µg/mL"},
      {"measurement": "Approx. Solubility", "setting": "[2]; DMSO, heated to ca. 40° C. where no dissolution", "value": "ca 5 mg/mL"},
      {"measurement": "Approx. Solubility", "setting": "[2]; Deionized Water", "value": ">200000", "unit": "µg/mL"},
      {"measurement": "Approx. Solubility", "setting": "[2]; Dichloromethane, heated to ca. 40° C. where no dissolution", "value": "<5000", "unit": "µg/mL"},
      {"measurement": "Approx. Solubility", "setting": "[2]; Ethanol/water (85:15% v/v), heated to ca. 40° C. where no dissolution", "value": "<5000", "unit": "µg/mL"},
      {"measurement": "Approx. Solubility", "setting": "[2]; Ethanol, heated to ca. 40° C. where no dissolution", "value": "ca 5 mg/mL"},
      {"measurement": "Approx. Solubility", "setting": "[2]; Ethyl Acetate, heated to ca. 40° C. where no dissolution", "value": "<5000", "unit": "µg/mL"},
      {"measurement": "Approx. Solubility", "setting": "[2]; Ethylene glycol", "value": 50000, "unit": "µg/mL"},
      {"measurement": "Approx. Solubility", "setting": "[2]; Heptane, heated to ca. 40° C. where no dissolution", "value": "<5000", "unit": "µg/mL"},
      {"measurement": "Approx. Solubility", "setting": "[2]; Isopropyl acetate, heated to ca. 40° C. where no dissolution", "value": "<5000", "unit": "µg/mL"},
      {"measurement": "Approx. Solubility", "setting": "[2]; Methanol/water (95:5% v/v)", "value": 20000, "unit": "µg/mL"},
      {"measurement": "Approx. Solubility", "setting": "[2]; Methanol, heated to ca. 40° C. where no dissolution", "value": "ca 5 mg/mL"},
      {"measurement": "Approx. Solubility", "setting": "[2]; Methyl isobutyl ketone, heated to ca. 40° C. where no dissolution", "value": "<5000", "unit": "µg/mL"},
      {"measurement": "Approx. Solubility", "setting": "[2]; N-Methylpyrrolidone, heated to ca. 40° C. where no dissolution", "value": "<5000", "unit": "µg/mL"},
      {"measurement": "Approx. Solubility", "setting": "[2]; Nitromethane", "value": 33000, "unit": "µg/mL"},
      {"measurement": "Approx. Solubility", "setting": "[2]; Tetrahydrofuran/water (99:1% v/v), heated to ca. 40° C. where no dissolution", "value": "<5000", "unit": "µg/mL"},
      {"measurement": "Approx. Solubility", "setting": "[2]; Tetrahydrofuran, heated to ca. 40° C. where no dissolution", "value": "<5000", "unit": "µg/mL"},
      {"measurement": "Approx. Solubility", "setting": "[2]; Toluene, heated to ca. 40° C. where no dissolution", "value": "<5000", "unit": "µg/mL"},
      {"measurement": "Approx. Solubility", "setting": "[2]; t-Butylmethyl ether, heated to ca. 40° C. where no dissolution", "value": "<5000", "unit": "µg/mL"}
    ]},
    {"smiles": "CN1CCN(c2ccc(Nc3ncc4cc5n(c4n3)C3(CCCCC3)CNC5=O)nc2)CC1", "note": "[Pattern 7, 2′-((5-(4-methylpiperazin-1-yl)pyridin-2-yl)amino)-7′,8′-dihydro-6′H-spiro[cyclohexane-1,9′-pyrazino[1′,2′:1,5]pyrrolo[2,3-d]pyrimidin]-6′-one]", "values": [
      {"measurement": "Observations at T = 24 hours", "setting": "[1]", "value": "Off-white slurry"},
      {"measurement": "Observations at T = 0 hours", "setting": "[1]", "value": "Off-white slurry"}
    ]},
    {"smiles": "CN1CCN(c2ccc(Nc3ncc4cc5n(c4n3)C3(CCCCC3)CNC5=O)nc2)CC1", "note": "[trilaciclib, 2′-((5-(4-methylpiperazin-1-yl)pyridin-2-yl)amino)-7′,8′-dihydro-6′H-spiro[cyclohexane-1,9′-pyrazino[1′,2′:1,5]pyrrolo[2,3-d]pyrimidin]-6′-one]", "values": [
      {"measurement": "solubility in DMSO", "setting": "[3]; DMSO", "value": "practically insoluble"},
      {"measurement": "solubility in water", "setting": "[3]; water", "value": "not very soluble"}
    ]}
  ]
}
